Reference: patent US9259350B2, “Ophthalmic devices for delivery of beneficial agents” (CooperVision International Holding Company, LP, priority 2012, dated 2016)

Columns and labels:
[1] = Drug uptake by dry vs wet (hydrated) Proclear lenses after autoclave; assay type: physicochemical; conditions: for % Δ Dry vs Wet (drug uptake): Proclear lens; for Drug Uptake, Wet Lens: hydrated Proclear lens; for Drug Uptake, Wet Lens / Drug Uptake, Dry Lens: autoclaved, n=3; for Drug Uptake, Dry Lens: non-hydrated Proclear lens
Procedure: The ability of hydrated and non-hydrated (dry) Proclear lenses to take up olopatadine, ketotifen, and cromolyn was evaluated. At physiological pH, olopatadine is zwitterionic, ketotifen is positively charged, and cromolyn is negatively charged. […] The dry lenses were removed from their original molds, packaged with 3 ml of each drug solution without any intermediate hydration step and autoclaved. For controls, each drug solution was packaged without a lens and autoclaved. After autoclave, the amount of drug in each packaging solution was measured by HPLC.

[2] = εPLL uptake by non-hydrated Proclear lenses in different buffers; assay type: physicochemical; conditions: dry Proclear lens, autoclaved, n=3
Procedure: The uptake and release of εPLL from non-hydrated (i.e. dry) Proclear lenses was evaluated. The εPLL (Chisso Corporation, Tokyo, Japan) was prepared at a concentration of 500 ppm in three different buffers, PBS, TRIS buffered saline (0.023% tris(hydroxymethyl)methylamine, 0.544% trizma hydrochloride, 0.819% NaCl; TBS), or Tris-sorbitol. Lenses were individually packaged, in triplicate, in 1.2 ml of each εPLL preparation and autoclaved. Additionally, vials containing 1.2 ml 500 ppm εPLL in each buffer with no lens (control vials) were also autoclaved. The amounts of εPLL present in the post-autoclave solution of the test lens vials and in the control vial were determined by cationic size exclusion chromatography using a sample injection volume of 5 μl, a Water Acquity UPLC BEH 125 SEC 1.7 μm 4.6×150 mm at room temperature, and a flow rate of 0.4 ml/min using 90% 0.2M NaCl/0.1% TFA in H20: 10% ACN isocratically. The average of the amount of εPLL taken up by each test lens (n=3) was calculated by subtracting the amount of εPLL present in the post-autoclave solution of the test lens vial from the amount of εPLL present in the control vial. Lenses packaged with 500 ppm εPLL in PBS took up an average of 88 μg εPLL. Lenses packaged with 500 ppm εPLL in TBS took up 47 μg εPLL, and lenses packaged with 500 ppm εPLL in Tris-sorbitol took up 208 μg εPLL.

[3] = εPLL uptake by hydrated Proclear lenses, packaging solutions of different ionic strength; assay type: physicochemical
Procedure: (§1) For example, hydrated Proclear contact lenses were packaged and autoclaved in PBS having an ionic strength of about 0.2 and comprising 500 ppm εPLL, an antimicrobial peptide. These lenses took up an average of 5 μg of the εPLL/lens. […] Thus, in various examples, the packaging solution has an ionic strength of less than about 0.15, 0.10, or 0.05 as calculated by the equation: […]

[4] = system: Serratia marcescens; assay: Antimicrobial activity of εPLL-packaged Proclear lenses; assay type: cell-based
Procedure: as §1

[5] = PSS uptake by hydrated and non-hydrated Proclear lenses; assay type: physicochemical
[6] = high concentration: 250 μg/ml ketotifen, 1000 μg/ml olopatadine, 2000 μg/ml cromolyn
[7] = low concentration: 25 μg/ml ketotifen, 200 μg/ml olopatadine, 400 μg/ml cromolyn
[8] = high concentration: 250 μg/ml ketotifen (borate buffer), 1000 μg/ml olopatadine (PBS), 2000 μg/ml cromolyn (PBS)
[9] = low concentration: 25 μg/ml ketotifen (borate buffer), 200 μg/ml olopatadine (PBS), 400 μg/ml cromolyn (PBS)

| Compound | % Δ Dry vs Wet (drug uptake) [1, 6] [%] | % Δ Dry vs Wet (drug uptake) [1, 7] [%] | Drug Uptake, Wet Lens [1, 8] [µg] | Drug Uptake, Wet Lens [1, 9] [µg] | Drug Uptake, Dry Lens [1, 8] [µg] | Drug Uptake, Dry Lens [1, 9] [µg] | also measured |
| --- | --- | --- | --- | --- | --- | --- | --- |
| CN1CCC(=C2c3ccccc3CC(=O)c3sccc32)CC1 [ketotifen] | −6 | −17 | 122 | 12 | 115 | 10 |  |
| CN(C)CC/C=C1/c2ccccc2COc2ccc(CC(=O)O)cc21 [olopatadine] | 6 | 16 | 202 | 45 | 215 | 52 |  |
| epsilon polylysine [εPLL] |  |  |  |  |  |  | εPLL uptake (average) ([2]; 500 ppm εPLL in PBS): 88 µg; εPLL uptake ([2]; 500 ppm εPLL in TBS): 47 µg; εPLL uptake ([2]; 500 ppm εPLL in Tris-sorbitol): 208 µg; εPLL uptake (average) ([3]; hydrated Proclear lenses autoclaved in PBS, ionic strength about 0.2, 500 ppm εPLL): 5 μg/lens; εPLL uptake (average) ([3]; hydrated Proclear lenses autoclaved in TRIS buffer with 2% sorbitol, ionic strength about 0.02): about 120 μg/lens; antimicrobial activity against Serratia marcescens ([4]; Proclear lenses autoclaved in PBS with 500 ppm εPLL): no antimicrobial activity; kill of Serratia marcescens ([4]; Proclear lenses autoclaved in TRIS buffer with 2% sorbitol with εPLL): ~4 log |
| C=Cc1ccc(S(=O)(=O)[O-])cc1.[Na+] [compound 206, styrene sulfonate] |  |  |  |  |  |  | uptake by dry lens compared to wet lens ([5]; Proclear lens): significantly more; % Δ Dry vs Wet (uptake) ([5]; Proclear lens, 0.01 mole/liter PSS, 48 hours): 16%; Uptake, Wet Lens ([5]; hydrated Proclear lens, 0.01 mole/liter PSS, 48 hours, n=3): 92 µg; Uptake, Dry Lens ([5]; non-hydrated Proclear lens, 0.01 mole/liter PSS, 48 hours, n=3): 110 µg |
